Some results are limits rather than exact numbers.

Data set [1] can be described thus: Cytotoxicity against human erythrocytes assessed as hemolytic activity at 100 ug/ml after 60 mins. It is filed as cell-based, Erythrocyte. The note with it: erythrocyte, 1 h.
A short description of data set [2]: Cytotoxicity against human erythrocytes assessed as hemolytic activity after 60 mins. It is filed as cell-based, Erythrocyte. To be noted: read-out: HD50.

Turning to `C[C@@H]1CC[C@@]2(OC1)O[C@H]1C[C@H]3[C@@H]4CC=C5C[C@@H](O[C@@H]6O[C@H](CO)[C@@H](O)[C@H](O)[C@H]6O)CC[C@]5(C)[C@H]4CC[C@]3(C)[C@H]1[C@@H]2C` [DISOGLUSIDE], the Activity entry in data set [1] is reported as “Not Active”. Further, the HC50 at 1 h in data set [2] is above 100 µM.
Regarding `CCCCCCCCCCCCCCCC(=O)O[C@H]1C[C@@H]2[C@H](CC[C@]3(C)[C@@H]4[C@H](C[C@@H]23)O[C@]2(CC[C@@H](C)CO2)[C@H]4C)[C@@]2(C)C[C@@H](O)[C@H](O[C@@H]3O[C@H](CO)[C@@H](O[C@H]4O[C@H](C)[C@@H](O)[C@H](O)[C@@H]4O)[C@H](O)[C@H]3O[C@H]3O[C@H](C)[C@@H](O)[C@H](O)[C@@H]3O)C[C@H]12`, in data set [1], the Activity entry was “Not Active”. In addition, the HC50 at 1 h in data set [2] is above 100 µM.
In the case of `C/C=C/C=C/C(=O)NC[C@H]1O[C@@H](O[C@H]2CC[C@@]3(C)C(=CC[C@H]4[C@@H]5C[C@@H]6O[C@]7(CC[C@@H](C)CO7)[C@@H](C)[C@@H]6[C@@]5(C)CC[C@@H]43)C2)[C@H](O[C@H]2O[C@H](C)[C@@H](O)[C@H](O)[C@@H]2O)[C@@H](O)[C@@H]1O[C@H]1O[C@H](C)[C@@H](O)[C@H](O)[C@@H]1O`, the HC50 at 1 h in data set [2] is 9.3 µM.
Regarding `C[C@@H]1CC[C@@]2(OC1)O[C@H]1C[C@H]3[C@@H]4CC[C@H]5C[C@@H](O[C@@H]6O[C@H](CO)[C@H](O[C@H]7O[C@H](C)[C@@H](O)[C@H](O)[C@@H]7O)[C@H](O)[C@H]6O[C@@H]6O[C@@H](C)[C@H](O)[C@@H](O)[C@H]6O)[C@H](O)C[C@]5(C)[C@H]4CC[C@]3(C)[C@H]1[C@@H]2C`, the HC50 at 1 h in data set [2] is 9.6 µM.
For the molecule `CC(=O)NCCO[C@H]1[C@H](O)[C@H](O)[C@@H](O[C@H]2[C@H](O)[C@@H](O[C@H]3O[C@H](C)[C@@H](O)[C@H](O)[C@@H]3O)[C@H](O[C@H]3CC[C@@]4(C)C(=CC[C@H]5[C@@H]6C[C@@H]7O[C@]8(CC[C@@H](C)CO8)[C@@H](C)[C@@H]7[C@@]6(C)CC[C@@H]54)C3)O[C@@H]2CO)O[C@@H]1C`, the HC50 at 1 h in data set [2] was determined as 9.2 µM.
The same measure, in the same setting: to `CCCCCCCCCCCCCC(=O)NCCO[C@H]1[C@H](O)[C@H](O)[C@@H](O[C@H]2[C@H](O)[C@@H](O[C@H]3O[C@H](C)[C@@H](O)[C@H](O)[C@@H]3O)[C@H](O[C@H]3CC[C@@]4(C)C(=CC[C@H]5[C@@H]6C[C@@H]7O[C@]8(CC[C@@H](C)CO8)[C@@H](C)[C@@H]7[C@@]6(C)CC[C@@H]54)C3)O[C@@H]2CO)O[C@@H]1C` belongs above 50 µg/mL; to `C[C@@H]1CC[C@@]2(OC1)O[C@H]1C[C@H]3[C@@H]4CC=C5C[C@@H](O[C@@H]6O[C@H](CO)[C@@H](O[C@H]7O[C@H](C)[C@@H](OCCNC(=O)c8ccccc8I)[C@H](O)[C@@H]7O)[C@H](O)[C@H]6O[C@H]6O[C@H](C)[C@@H](O)[C@H](O)[C@@H]6O)CC[C@]5(C)[C@H]4CC[C@]3(C)[C@H]1[C@@H]2C`, 1.7 µM; to `C[C@@H]1CC[C@@]2(OC1)O[C@H]1C[C@H]3[C@@H]4CC=C5C[C@@H](O[C@@H]6O[C@H](CNC(=O)c7ccccc7)[C@@H](O[C@H]7O[C@H](C)[C@@H](O)[C@H](O)[C@@H]7O)[C@H](O)[C@H]6O[C@H]6O[C@H](C)[C@@H](O)[C@H](O)[C@@H]6O)CC[C@]5(C)[C@H]4CC[C@]3(C)[C@H]1[C@@H]2C`, 10.7 µM.
Take `C[C@@H]1CC[C@@]2(OC1)O[C@H]1C[C@H]3[C@@H]4CC=C5C[C@@H](O[C@@H]6O[C@H](CO)[C@@H](O[C@H]7O[C@H](C)[C@@H](OCCNC(=O)c8ccccc8)[C@H](O)[C@@H]7O)[C@H](O)[C@H]6O[C@H]6O[C@H](C)[C@@H](O)[C@H](O)[C@@H]6O)CC[C@]5(C)[C@H]4CC[C@]3(C)[C@H]1[C@@H]2C`: the HC50 at 1 h in data set [2] turned out to be 49.3 µM.

The values above are taken from ChEMBL document CHEMBL1147199, “Exploration of the correlation between the structure, hemolytic activity, and cytotoxicity of steroid saponins” (Bioorg Med Chem, 2007).
